Test results reported in US20050169928A1, “Antibodies which bind to proteins involved in cytoadhesion of plasmodlum falciparum ring-stage-infected erythrocytes” (INSTITUT PASTEUR, priority 2000, published 2005).

Assays:
Type in all cases: cell-based, P. falciparum
[1] = tested on: ring-stage PA^CSA IE cytoadhesion to SBEC 1D; assay: Ring-stage IE cytoadhesion inhibition assay on SBEC 1D (Example 1); settings: for inhibitory activity on ring-stage IE cytoadhesion to SBEC 1D (in words): ring-stage PA^CSA IE 8 hours post-invasion, glycosaminoglycans, enzymes on target cells, thrombospondin; for sensitivity of ring-stage IE^CSA cytoadhesion to inhibitor: 0.1 mg/ml CSA, or target cells pretreated with 1 U/ml chondroitinase ABC, until the 16th hour after invasion; for time after invasion of maximal inhibition of IE^CSA binding: highly synchronized PA^CSA IE tested every 4 hours throughout the cycle
Procedure: Gelatin-enriched preparations of mature-stage IE were resuspended at a concentration of 5×10^6 IE/ml in cytoadhesion medium at pH 6.8. Cytoadhesion microassays were then performed on 12-well IFA slides (Institut Pasteur, Paris) as previously described (Pouvelle, B. Fusai, T. Lepolard, C. & Gysin, J. biological and biochemical characteristics of cytoadhesion of Plasmodium falciparum-infected erythrocytes to chondroitin-4-sulfate. Infect. Immun. 66, 4950-4956 (1998)).
Ring-stage cytoadhesion assays were performed with endothelial cells as described above and with placental cryosections as previously described (Gysin, J., Pouvelle, B., Le Tonqueze, M., Edelman, L. & Boffa, M. C., Chondroitin sulfate of thrombomodulin is an adhesion receptor for Plasmodium falciparum-infected erythrocyics. Mol. Biochem. Parasitol. 88, 267-271 (1997)), with 1 to 10% parasitaemia (a 1×10^7 IE/ml suspension).
For cytoadhesion inhibition assays, the IE were incubated with SBEC in the presence of 2.5 μg/ml thrombospondin, 0.1 mg/ml soluble CSA, dermatan sulphate (CSB), chondroitin-6-sulphate (CSC), keratin sulphate (Ker), hyaluronic acid (HA), heparin (Hep) (Fluka, France), or with SBEC previously incubated for 1 hour at 37° C. with 1 U/ml chondrotinase ABC (Fluka, France), 1 to 10 U/ml heparinase III (Hepase III) (Sigma, France) or 5 μg/ml anti-CD36 FA6-152 Mab (gift from Dr. Edelman). Inhibition assays were also carried out in the presence of sera obtained from Senegalese and Cameroonian patients living in areas of endemic malaria. The sera were obtained from primigravida and multigravida women, an adult and a child, absorbed onto O^+ human blood and SBEC ID, and tested at a dilution of 1/20. The results were compared to those for cytoadhesion in the presence of a 1/20 dilution of a pool of control sera from volunteers who had never contacted malaria.
The protease sensitivity of ring-stage IE cytoadhesion was analyzed using 5 μl of packed PA^CSA IE (8 hours post-invasion). IE were incubated with 10 or 100 μg/ml of trypsin TPCK (Signa) or 100 μg/ml of α-chymotrypsin TLCK (Sigma) for 30 minutes at 37° C. The digestion was stopped by adding culture medium containing 10% human plasma. The cells were then washed in cytoadhesion medium and allowed to cytoadhere to SBEC 1D, as previously described, using untreated PA^CSA as a control.

[2] = tested on: adherent rIE^CSA/nE and mature IE^CSA on SBEC 1D; assay: Cytoadhesion inhibition and desequestration under flow conditions at 0.05 Pa; settings: B4 200 μg/ml, CSA 10 μg/ml final
Procedure: In short: Four serial 7 μm normal human placenta cryosections (each of approximately 4 mm×4 mm) of the maternal compartment were mounted on a microscopic slide 75-25 mm and fixed with 0.5% para-formaldehyde in PBS at pH 7.2, for 2 hours at room temperature. After washing several times with PBS and then with RPMI 1640 pH 6.8, the slide is mounted on a perfusing chamber (Immunetics, France). An equipart mixture of 8±4 hours old synchronized rIE^CSA (including nE from the same culture) and 34±4 hours old IE^CSA at a final hematocrit of 25% in RPMI 1640, pH 7.2 were then flow through the chamber for 10 min at 0.05 Pascals. After rinsing for 10 min with the medium at the same shear stress, 100 ug/ml of a 50 kDa CSA (Fluka, France) dissolved in RPMI or 200 ug/ml of mAbs was flushed through the chamber for 10 min at the same shear stress. Slides from 3 experiments were recovered and stained by Giemsa. Mature IE, rIE and nE were counted and the result expressed as arithmetic mean percentage of bound erythrocytes±SD/20 fields of 100× Oil magnification as described elsewhere (Gysin, J., B. Pouvelle, N. Fievet, A. Scherf, and C. Lepolard. 1999. Ex vivo desequestration of Plasmodium falciparum-infected erythrocytes from human placenta by chondroitin sulfate A. Infect Immun. 67:6596-602).

[3] = tested on: cytoadhesion of IE on endothelial cells or placenta cryosections; assay: Stage-specific cytoadhesion inhibition on endothelial cells or placenta cryosections (discussion)
Procedure: Cytoadhesion inhibition and disruption assays were performed on SBEC 1D cells grown to confluence on 12-dot IFA slides as described elsewhere (Pouvelle, B., P. Meyer, C. Robert, L. Bardel and J. Gysin. 1997. Chondroitin-4-sulfate impairs in vitro and in vivo cytoadherence of Plasmodium falciparum infected erythrocytes. Mol Med. 3:508-18) by assessing the laboratory CSA-binding strains FCR3, FCBR, BXII, SUK, HB, IBR and the placenta isolates no. 24, 42,42DJ, 193 and 939. In short: 20 μl of a mixture of synchronized rIE with nE or mIE from corresponding cultures at a parasitaemia of 4-15% for a total 10^7 IE/ml RPMI 1640, pH6.8 were layered per dot of confluent SBEC 1D cells. For the inhibition assay, 20 μl of each mAb at a concentration of 0.2 to 200 μg/ml was deposited simultaneously with rIE or IE and corresponding nE/dot for 2 hours at +37° C. For the disruption assay the same mAbs were added after a one hour preincubation of IEs and nEs with endothelial cells for an additional 1 hour. Unbound erythrocytes were removed by vigorously washing the slides in RPMI 1640, pH6.8. Bound IE and nE were fixed with 0.25% glutaraldehyde in PBS pH7.2. The inhibition and disruption of cytoadhesion was expressed as bound IE and nE/mm^2 of confluent endothelial cells in the presence of mAbs, in comparison to unrelated mouse IgG of the same IgG isotype (Sigma, USA). […]

hyaluronate lyase
inhibitory activity on ring-stage IE cytoadhesion to SBEC 1D (in words) [1]: low level of inhibitory activity

dermatan-sulphate
inhibitory activity on ring-stage IE cytoadhesion to SBEC 1D (in words) [1]: not specific

hyaluronic acid
inhibitory activity on ring-stage IE cytoadhesion to SBEC 1D (in words) [1]: no activity

Thrombospondin: mature-stage IE adhesion receptor protein tested at 2.5 μg/ml
inhibitory activity on ring-stage IE cytoadhesion to SBEC 1D (in words) [1]: no effect

chondroitin-sulphate A [CSA]
sensitivity of ring-stage IE^CSA cytoadhesion to inhibitor [1]: insensitive
time after invasion of maximal inhibition of IE^CSA binding [1]: 24 h
desequestration of adherent mature IE^CSA by flushing [2]: removed only the mature forms
inhibition of cytoadhesion of mature blood stages ([3]; mature blood stages): > 90%
inhibition of cytoadhesion of young trophozoites ([3]; young trophozoites (16-20 hours), RSP-2 and PfEMP1 both expressed): ≤ 25%

heparin
inhibition of ring-stage cytoadhesion ([1]; Heparin 100 μg/ml, heparinase treatment of target cells, SBEC 1D): about 50%

chondroitinase ABC
sensitivity of ring-stage IE^CSA cytoadhesion to inhibitor [1]: insensitive
time after invasion of maximal inhibition of IE^CSA binding [1]: 24 h
inhibitory activity on ring-stage IE cytoadhesion to SBEC 1D (in words) [1]: no significant inhibitory activity

B1: trypsin: protease used to treat ring-stage IE (protein, UniProt P00760 24-246, looked up)
Serine protease 1: IVGGYTCGANTVPYQVSLNSGYHFCGGSLINSQWVVSAAHCYKSGIQVRLGEDNINVVEGNEQFISASKSIVHPSYNSNTLNNDIMLIKLKSAASLNSRVASISLPTSCASAGTQCLISGWGNTKSSGTSYPDVLKCLKAPILSDSSCKSAYPGQITSNMFCAGYLEGGKDSCQGDSGGPVVCSGKLQGIVSWGSGCAQKNKPGVYTKVCNYVSWIKQTIASN
modifications: TPCK-treated
notes: protease used to treat ring-stage IE
inhibition of ring-stage IE adhesion after protease treatment of IE ([1]; protease concentration 100 μg/ml): substantially inhibited
